From PMC11530130, “Peripherally restricted PICK1 inhibitor mPD5 ameliorates pain behaviors in murine inflammatory and neuropathic pain models” (JCI Insight, 2024)
“And” between values parts separate entries of the source, which are not always exact repeats. Identical values can stand only once.

System: mice, CFA model of inflammatory pain
Assay: CFA model of inflammatory pain, von Frey, s.c. administration
Type: in vivo, mouse
Settings: for paw withdrawal threshold (von Frey), individual mice / von Frey paw withdrawal threshold, ipsilateral paw (Fig S7A) / von Frey paw withdrawal threshold, contralateral paw (Fig S7A): listed as myr; for von Frey paw withdrawal threshold, ipsilateral paw (Fig S7A) / von Frey paw withdrawal threshold, contralateral paw (Fig S7A): CFA mice, individual animals; for von Frey paw withdrawal threshold, ipsilateral paw (Fig S7A): group 10; for von Frey paw withdrawal threshold, contralateral paw (Fig S7A): group 10_contra; for effect on mechanical hypersensitivity (PWT): CFA, male mice
Experimental: Unless otherwise specified, wild type C57BL/6NRj mice (male and female, aged eight-weeks at the beginning of experiment) were used (Janvier, France). Animals were allowed at least seven days of habituation to the animal facility before initiation of experiment. Mice were group-housed in a temperature-controlled room, maintained on a 12/12hour light/dark cycle (lights on at 6 A.M) with free access to standard rodent chow (Altromin 1342 (Brogaarden, […]
Drug administration and dosing for animal experiments.
All compounds were diluted in PBS or saline (depending on control) and administered through different routes i.t. (7 μL/mouse)), i.p. (10 μL/g) or s.c. (10 μL/g)) as indicated. Doses of mPD5 were based on previous studies with TPD5 (6) with a subcutaneous dose-range included in the CFA studies further guiding dose selection for SNI, STZ and CIBP studies. Pregabalin dose was chosen based on previous experience from Phenotype Expertise (Marseilles, France). In the CIBP model, a dose of […] morphine was chosen to avoid hyperactivity, though known to provide only partial pain relief in this model. In remaining experiments, 5 mg/kg morphine was chosen, known to provide full pain relief, except for the conditioned place preference experiment, where 10 mg/kg was used instead in accordance with literature. […]
µL of IS1 (internal standard in MeOH (Labetalol & tolbutamide & Verapamil & dexamethasone & glyburide & Celecoxib 100 ng/mL for each)) and the mixture was vortexed for 10 min at 800 rpm and centrifuged for 15 min at 3220 × g at 4 ℃. An aliquot of 65 µL supernatant was transferred to a clean 96-well plate and centrifuged for 5 min at 3220 × g at 4 ℃, then the supernatant was directly injected for LC-MS/MS analysis. Plasma half-lives were determined from three points in the elimination phase. In a separate experiment, biodistribution was assessed (plasma, CSF, spinal cord, whole brain) at two hours after single dose of 10 µmol/kg or one hour after last injection in the repeated administration paradigm (10 µmol/kg followed by four s.c. administrations of 2 µmol/kg with one hour between). At these times, plasma levels were similar between the two paradigms. Plasma, CSF, and tissue samples (kept at 4 ℃) were processed and analysed as described above.
Concentration 10 µmol/kg: Wild type mice were habituated to the experimental room for a minimum of 60 min before initiation of the experiment. Female and male mice were run on separate days. Mice were injected s.c. with 10 μmol/kg mPD5 or sterile PBS directly before being placed in open field boxes (40 cm x 40 cm x 80 cm) for 2.5 hours with up to four mice in boxes at any one time. A video camera placed above the open field recorded the animals’ behaviour and Ethovision XT 13 (Noldus) was used to track the distance travelled by the […]
Concentration 30 + 50 µmol/kg: Animals were habituated to the experimental room for a minimum of 60 min before initiation of the experiment. At initiation of experiment, the mice (all male) were injected subcutaneously (s.c.) with mPD5 (30 or 50 μmol/kg, pH adjusted to approximately 7 with 5 M NaOH) or 0.9 % saline (B.Braun, Germany) and left in their home cage for 60 min. After exactly one hour, the mice were placed in an open field (40 cm x 40 cm x 80 cm) for 60 min. A video camera placed above the open field recorded the animals’ […]
animal. The experiment was run in cohort with Figure 2B+C of (9)).
Induction of inflammatory pain (CFA model).
Injury was induced on the right hind paw, whereas the contralateral left hind paw was used as internal control of the C57BL/6J male and female mice (Janvier, France). The inflammatory pain was induced by injection of 50 μL undiluted Complete Freund’s Adjuvant (CFA) (F5881, Sigma) unilaterally into the intraplantar surface of the right hind paw, whereas control mice were injected with the same amount of 0.9 % saline (B. Braun, Germany). All intraplantar injections were performed with an insulin needle (0.3 mL BD Micro-Fine) while the animal […]

[1] = 1 hr post myr injection on day 2
[2] = 5 hrs post myr injection on day 2
[3] = 25 hrs post myr injection on day 2
[4] = day 2 after CFA injection (before dosing)

Structure (SMILES): CCCCCCCCCCCCCC(=O)N(CCOCCOCCC(=O)N[C@@H](Cc1c[nH]cn1)C(=O)N[C@@H](Cc1c[nH]c2ccccc12)C(=O)N[C@@H](CC(C)C)C(=O)N[C@@H](CCCCN)C(=O)N[C@H](C(=O)O)C(C)C)CCOCCOCCC(=O)N[C@@H](Cc1c[nH]cn1)C(=O)N[C@@H](Cc1c[nH]c2ccccc12)C(=O)N[C@@H](CC(C)C)C(=O)N[C@@H](CCCCN)C(=O)N[C@H](C(=O)O)C(C)C [mPD5, myristoyl-NPEG4-(HWLKV)2]
- paw withdrawal threshold (von Frey), individual mice (CFA day 2, s.c. 50 μmol/kg, contralateral paw, 1 hr post injection): 1 (3×) and 2 (3×)
- paw withdrawal threshold (von Frey), individual mice (CFA day 2, s.c. 50 μmol/kg, contralateral paw, 5 hrs post injection): 1 (3×) and 1.4 (3×)
- paw withdrawal threshold (von Frey), individual mice (CFA day 2, s.c. 50 μmol/kg, contralateral paw, 24 hrs post injection): 1.4 (2×) and 2 (3×) and 1
- paw withdrawal threshold (von Frey), individual mice (CFA day 2, s.c. 50 μmol/kg, contralateral paw, 262 hrs post injection): 1 and 2 (2×) and 1.4 (3×)
- paw withdrawal threshold (von Frey), individual mice (CFA day 2, s.c. 50 μmol/kg, ipsilateral paw, 1 hr post injection): 0.4 and 1.4 and 2 (2×) and 1 (2×)
- paw withdrawal threshold (von Frey), individual mice (CFA day 2, s.c. 50 μmol/kg, ipsilateral paw, 5 hrs post injection): 0.6 and 0.4 (2×) and 1 and 0.16 (2×)
- paw withdrawal threshold (von Frey), individual mice (CFA day 2, s.c. 50 μmol/kg, ipsilateral paw, 24 hrs post injection): 0.07 and 0.16 (2×) and 0.4 (3×)
- paw withdrawal threshold (von Frey), individual mice (CFA day 2, s.c. 50 μmol/kg, ipsilateral paw, 262 hrs post injection): 1 (2×) and 1.4 (3×) and 0.6
- paw withdrawal threshold (von Frey), individual mice (CFA dose range, s.c. 2 μmol/kg, contralateral paw, 1 hr post injection): 2 (4×) and 1.4
- paw withdrawal threshold (von Frey), individual mice (CFA dose range, s.c. 2 μmol/kg, ipsilateral paw, 1 hr post injection): 0.6 and 0.16 and 1 and 1.4 and 0.4
- paw withdrawal threshold (von Frey), individual mice (CFA dose range, s.c. 2 μmol/kg, ipsilateral paw, 5 hrs post injection): 0.4 and 0.16 (3×) and 0.6
- paw withdrawal threshold (von Frey), individual mice (CFA dose range, s.c. 10 μmol/kg, contralateral paw, 1 hr post injection): 1.4 (4×) and 2 (2×)
- paw withdrawal threshold (von Frey), individual mice (CFA dose range, s.c. 10 μmol/kg, contralateral paw, 5 hrs post injection): 1 (2×) and 1.4
- paw withdrawal threshold (von Frey), individual mice (CFA dose range, s.c. 10 μmol/kg, ipsilateral paw, 1 hr post injection): 0.4 and 0.6 (2×) and 1.4 and 0.16 and 1
- paw withdrawal threshold (von Frey), individual mice (CFA dose range, s.c. 10 μmol/kg, ipsilateral paw, 5 hrs post injection): 0.16 and 0.6 (2×) and 1.4
- paw withdrawal threshold (von Frey), individual mice (CFA dose range, s.c. 50 μmol/kg, contralateral paw, 1 hr post injection): 1.4 (4×) and 2
- paw withdrawal threshold (von Frey), individual mice (CFA dose range, s.c. 50 μmol/kg, contralateral paw, 5 hrs post injection): 2 (3×) and 1.4 (2×)
- paw withdrawal threshold (von Frey), individual mice (CFA dose range, s.c. 50 μmol/kg, ipsilateral paw, 1 hr post injection): 1.4 (3×) and 0.6 (2×)
- paw withdrawal threshold (von Frey), individual mice (CFA dose range, s.c. 50 μmol/kg, ipsilateral paw, 5 hrs post injection): 0.6 and 1 (2×)
- von Frey paw withdrawal threshold, ipsilateral paw (Fig S7A) [1]: 0.6 (2×) and 1 (3×) and 0.4
- von Frey paw withdrawal threshold, ipsilateral paw (Fig S7A) [2]: 0.16 (2×) and 0.07 (2×) and 0.4 and 0.6
- von Frey paw withdrawal threshold, ipsilateral paw (Fig S7A) [3]: 0.07 (4×) and 0.16 (2×)
- von Frey paw withdrawal threshold, ipsilateral paw (Fig S7A) (baseline before CFA injection): 1 and 1.4 (5×)
- von Frey paw withdrawal threshold, ipsilateral paw (Fig S7A) [4]: 0.07 (4×) and 0.16 (2×)
- von Frey paw withdrawal threshold, contralateral paw (Fig S7A) [1]: 1 (4×) and 1.4 and 0.6
- von Frey paw withdrawal threshold, contralateral paw (Fig S7A) [2]: 1 (4×) and 0.6 and 1.4
- von Frey paw withdrawal threshold, contralateral paw (Fig S7A) [3]: 0.6 (2×) and 1 (4×)
- von Frey paw withdrawal threshold, contralateral paw (Fig S7A) (baseline before CFA injection): 1.4 (5×) and 1
- von Frey paw withdrawal threshold, contralateral paw (Fig S7A) [4]: 1 (3×) and 0.6 (2×) and 1.4
- effect on mechanical hypersensitivity (PWT) (s.c. 50 μmol/kg, 5 hours after injection): significant reduction of mechanical hypersensitivity
- effect on mechanical hypersensitivity (PWT) (s.c. 2, 10 and 50 μmol/kg (all doses), 1 hour after administration): significant reversion of mechanical hypersensitivity
- effect on mechanical hypersensitivity (PWT) (single s.c. 50 μmol/kg, 1 hour after injection): reverted hypersensitivity
- reversion of CFA-induced mechanical hypersensitivity in female mice (female mice, s.c. 10 μmol/kg): confirmed
